Data on nine compounds can be found in PubChem BioAssay (NCI).

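Compound exposure: 48 hours, 5 concentrations, 96-well plates. GI50: concentration for 50% inhibition of growth. At the TGI there is no net growth.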

What all share (test): inhibition of tumour cell growth, NCI panel, 48 h
Experiment [1] has as its system OVCAR-3 ovarian.
Experiment [2] deals with PC-3 prostate.
Experiment [3] deals with SNB-75 CNS.
Experiment [4] concerns TK-10 renal.
The subject of experiment [5] is DU-145 prostate.
Experiment [6] concerns HOP-62 NSCLC.
The test system of experiment [7] is HL-60(TB) leukemia.
The test system of experiment [8] is KM12 colon.
The subject of experiment [9] is SF-295 CNS.
In experiment [10] the test system is HCT-15 colon.

On to `CCOC(=O)C1=CSC2=NC3=C(CCC/C3=C\c3cc(OC)c(OC)c(OC)c3)C(c3cc(OC)c(OC)c(OC)c3)N12` (configuration not stated), for which the GI50 in [1] is 2.96 µM; in experiment [2] it was 0.751 µM; in [3], 3.74 µM; in [4], 4.33 µM; in experiment [5], 3.48 µM; in experiment [6], 1.43 µM. For the same compound, the TGI in experiment [1], in [2], in experiment [3], in [4], in experiment [5] and in experiment [6] was above 100 µM throughout.

As to `O=CC(O)C(O)C(OC1OC(CO)C(O)C(O)C1O)C(O)CO` (configuration not stated) (tested in a mixture with another compound), the TGI in experiment [7] was 64.1 µM; in experiment [8], 50.8 µM; in experiment [1], above 100 µM; in experiment [9], above 100 µM; in experiment [2] it was above 100 µM; in experiment [3], above 100 µM. Moreover, the TGI in experiment [10] was 54 µM; in [4], above 100 µM; in experiment [5], above 100 µM; in experiment [6] it was above 100 µM.

With `COc1cc2c(cc1OC)C(SC)C(=O)N(Cc1cccc(OC)c1OC)CC2` (configuration not stated), the TGI in experiment [7] was 5.63 µM; in experiment [8] it was 40.3 µM; in experiment [1], 7.03 µM; in [9], above 43.6 µM; in experiment [2] it was above 69 µM; in experiment [3], above 100 µM. For the same compound, the TGI in experiment [10] is above 74 µM; in [4], above 100 µM; in [5], above 23 µM; in experiment [6] it was above 45.8 µM.

Regarding `C=CC[PH+](c1ccccc1)c1ccccc1.C=CC[PH+](c1ccccc1)c1ccccc1.[Pt+2].[S-]c1ncccn1.[S-]c1ncccn1`, the GI50 in experiment [7] is 7.95 µM; in experiment [8], 28.4 µM; in experiment [1] it was 2.88 µM; in experiment [9], above 100 µM; in experiment [2], 11 µM; in [3] it was 8.25 µM. The GI50 in [10] was 2.94 µM; in experiment [4], 5.8 µM; in experiment [5], 23.9 µM; in experiment [6] it was 39.5 µM. In addition, the TGI was 90.2 µM in [7]; above 100 µM in [8]; 9.49 µM in [1]; above 100 µM in [9]; 37.7 µM in [2]; above 100 µM in experiment [3]. In addition, the TGI in [10] was 10.4 µM; in [4] it was 46.2 µM; in experiment [5], above 100 µM; in experiment [6], above 100 µM.

`O=C1c2ccccc2-c2c1c1ccc([N+](=O)[O-])cc1c(=O)n2CCCCl`: the GI50 in experiment [7] is 52.4 µM; in experiment [8] it was above 100 µM; in [1], 4.91 µM; in experiment [9], 2.25 µM; in [2] it was 15.2 µM; in [10], above 100 µM. In addition, the GI50 in [4] is 37.8 µM; in [5], 40.4 µM; in [6], 43.8 µM. For the same compound, the TGI in [7] was above 100 µM; in experiment [8] it was above 100 µM; in experiment [1], 77 µM; in experiment [9], above 100 µM; in [2] it was above 100 µM; in experiment [10] it was above 100 µM. The TGI in experiment [4], in [5] and in experiment [6] was above 100 µM in each case.

Regarding `CCN(CC)Cc1cc(Nc2cc(C(F)(F)F)c(C#N)c3nc4ccccc4n23)ccc1O`, the GI50 in experiment [7] is 2.96 µM; in experiment [8], 2.42 µM; in [1], 1.83 µM; in experiment [9], 1.2 µM; in experiment [2] it was 2.32 µM; in [3], 1.41 µM. The GI50 in experiment [10] is 0.78 µM; in experiment [4] it was 1.47 µM; in [5], 2.78 µM; in experiment [6], 3.05 µM. For the same compound, the TGI in [7] came to 8.37 µM; in [8], 8.22 µM; in experiment [1] it was 10.4 µM; in [9], 3.81 µM; in [2], 7.87 µM; in experiment [3] it was 7.54 µM. Besides, the TGI in experiment [10] amounted to 2.76 µM; in experiment [4], 9.43 µM; in [5] it was 15.7 µM; in experiment [6], 11.4 µM.

`Cc1ccc(-c2nc(C(Cl)Cl)nc3cc(C)nn23)cc1`: the GI50 in experiment [7] is 1.33 µM; in experiment [1], 1.47 µM; in [9] it was 2.1 µM; in experiment [2], 2.55 µM; in experiment [3], 1.48 µM; in experiment [10], 1.24 µM. The GI50 in [4] is 3.55 µM; in [5] it was 0.432 µM; in [6] it was 1.31 µM. Further, the TGI was 5.46 µM in experiment [7]; 3.42 µM in experiment [1]; 6.71 µM in experiment [9]; above 100 µM in experiment [2]; 8.39 µM in experiment [3]; 4.61 µM in [10]. Further, the results for the TGI in experiment [4], in experiment [5] and in [6] were above 100 µM, 2.81 µM and 8.58 µM, respectively.

On to `COc1ccc(C(=O)/C=C/c2ccc(OCc3ccccc3)c(OC)c2)cc1OC`, for which the GI50 in experiment [7] is 3.67 µM; in experiment [8] it was 3.48 µM; in [1] it was 2.85 µM; in experiment [2], 5.11 µM; in experiment [10] it was 2.78 µM; in experiment [4], 4.32 µM. Also, the GI50 in [5] was 2.76 µM; in experiment [6], 3.67 µM. Besides, the TGI in [7] is 32.5 µM; in [8], above 100 µM; in experiment [1], 8.77 µM; in experiment [2], above 100 µM; in [10], above 100 µM; in [4] it was 43.8 µM. Also, the TGI in [5] was 8.1 µM; in experiment [6] it was above 100 µM.

Regarding `COc1cc2c3c(n(CCCN4CCSCC4)c(=O)c2cc1OC)-c1cc2c(cc1C3=O)OCO2`, the GI50 in experiment [8] was above 100 µM; in experiment [1], 35 µM; in experiment [9] it was 19 µM; in [2] it was 42.8 µM; in experiment [3] it was 12.9 µM; in experiment [10] it was above 100 µM. Also, the GI50 is 27.2 µM in experiment [4], above 100 µM in [5] and 26.2 µM in experiment [6]. Besides, the TGI in [8] is above 100 µM; in experiment [1] it was 97.1 µM; in [9] it was above 100 µM; in experiment [2] it was above 100 µM; in [3] it was 27.5 µM; in [10], above 100 µM. Besides, the TGI was 82.9 µM in experiment [4], above 100 µM in experiment [5] and 73.7 µM in [6].
